Laboratory results: PubChem BioAssay AID256 (DTP/NCI, 2004)
Several values for one entry are separate records, joined by “and”; a condition that tells them apart may be missing. Equal entries are not always repeated. Inconclusive results and toxic doses are left out. How the source made its calls: active means survival T/C of 150% or more; inactive means T/C below 125% in these data.

Test system: CD2F1 mice, L1210 leukemia ip, survival T/C
Experiment: NCI In Vivo Anticancer Drug Screen. Data for tumor model L1210 Leukemia (intraperitoneal) in CD2F1 (CDF1) mice
Details: higher = longer survival
Outline: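 In this screen, transplantable tumors were grown in mice given either the compound or its vehicle. Results were expressed as the treated measurement relative to the control measurement.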

[1] = endpoint: mean survival time, dose: 100.0 mg/kg/injection, schedule: Q04DX003 (ip), vehicle: saline with Tween-80
[2] = endpoint: mean survival time, dose: 200.0 mg/kg/injection, schedule: Q04DX003 (ip), vehicle: saline with Tween-80
[3] = endpoint: mean survival time, dose: 100.0 mg/kg/injection, schedule: Q01DX001 (ip), vehicle: saline with Tween-80
[4] = endpoint: median survival time, dose: 50.0 mg/kg/injection, schedule: Q01DX005 (ip), vehicle: saline
[5] = endpoint: median survival time, dose: 100.0 mg/kg/injection, schedule: Q01DX005 (ip), vehicle: saline
[6] = endpoint: mean survival time, dose: 400.0 mg/kg/injection, schedule: Q04DX003 (ip), vehicle: saline with Tween-80
[7] = endpoint: mean survival time, dose: 50.0 mg/kg/injection, schedule: Q01DX009 (ip), vehicle: saline with Tween-80
[8] = endpoint: mean survival time, dose: 100.0 mg/kg/injection, schedule: Q01DX009 (ip), vehicle: saline with Tween-80
[9] = endpoint: mean survival time, dose: 200.0 mg/kg/injection, schedule: Q01DX009 (ip), vehicle: saline with Tween-80

Measured: T/C

COc1ccccc1-n1c(O)c(N=Nc2ccccc2)c(=O)n(-c2ccccc2)c1=S
inactive: endpoint: mean survival time, dose: 100.0 mg/kg/injection, schedule: Q04DX003 (ip), vehicle: acetone 90 % of control

NC1=NC(CCc2ccccc2)N(c2ccc3ccccc3c2)C(N)=N1 (stereo unspecified)
inactive: endpoint: mean survival time, dose: 4.7 mg/kg/injection, schedule: Q04DX003 (ip), vehicle: saline 104 % of control | endpoint: mean survival time, dose: 9.4 mg/kg/injection, schedule: Q04DX003 (ip), vehicle: saline 100 % of control | endpoint: mean survival time, dose: 18.8 mg/kg/injection, schedule: Q04DX003 (ip), vehicle: saline 100 % of control

COc1cc2c(c(OC)c1OC)-c1ccc(SC)c(=O)cc1[C@@H](NC(C)=O)CC2
inactive: endpoint: mean survival time, dose: 0.2 mg/kg/injection, schedule: Q01DX009 (ip), vehicle: Klucel (hydroxypropylcellulose) (HPC) 86 % of control | endpoint: mean survival time, dose: 0.75 mg/kg/injection, schedule: Q04DX002 (ip), vehicle: Klucel (hydroxypropylcellulose) (HPC) 121 % of control | endpoint: mean survival time, dose: 3.0 mg/kg/injection, schedule: Q04DX002 (ip), vehicle: Klucel (hydroxypropylcellulose) (HPC) 118 % of control and 95 % of control | endpoint: mean survival time, dose: 6.0 mg/kg/injection, schedule: Q04DX002 (ip), vehicle: Klucel (hydroxypropylcellulose) (HPC) 97 % of control

CCC[CH2][Sn]([Cl])([CH2]Cl)[CH2]CCC
inactive: endpoint: mean survival time, dose: 2.5 mg/kg/injection, schedule: Q04DX003 (ip), vehicle: saline 98 % of control | endpoint: mean survival time, dose: 5.0 mg/kg/injection, schedule: Q04DX003 (ip), vehicle: saline 97 % of control

COc1ccc(NC(=O)Oc2cccnc2)c(Cl)c1
inactive: endpoint: mean survival time, dose: 50.0 mg/kg/injection, schedule: Q01DX009 (ip), vehicle: Klucel (hydroxypropylcellulose) (HPC) 100 % of control | endpoint: mean survival time, dose: 100.0 mg/kg/injection, schedule: Q01DX009 (ip), vehicle: Klucel (hydroxypropylcellulose) (HPC) 104 % of control

CN(C)CCSc1cc(O)c2c(c1O)C(=O)c1ccccc1C2=O
inactive: endpoint: mean survival time, dose: 25.0 mg/kg/injection, schedule: Q01DX009 (ip), vehicle: water 95 % of control | endpoint: mean survival time, dose: 50.0 mg/kg/injection, schedule: Q01DX009 (ip), vehicle: water 98 % of control | endpoint: mean survival time, dose: 100.0 mg/kg/injection, schedule: Q01DX009 (ip), vehicle: water 92 % of control | endpoint: mean survival time, dose: 200.0 mg/kg/injection, schedule: Q01DX009 (ip), vehicle: water 95 % of control

CCCCCCCCCCCC(=O)Nc1ccc(C(C)C)cc1
inactive: [1] 97 % of control | [2] 96 % of control

C=C1C(O)C2(O)OCC34C(CC5C(C)=CC(=O)C(O)C5(C)C23)OC(=O)C(OC(=O)C/C=C/CCCCCCCC)C14 (stereo unspecified)
inactive: endpoint: median survival time, dose: 2.0 mg/kg/injection, schedule: Q01DX005 (ip), vehicle: saline + alcohol 113 % of control | endpoint: median survival time, dose: 4.0 mg/kg/injection, schedule: Q01DX005 (ip), vehicle: saline + alcohol 119 % of control | endpoint: median survival time, dose: 8.0 mg/kg/injection, schedule: Q01DX005 (ip), vehicle: saline + alcohol 119 % of control and 124 % of control

NC1=C(Cl)C(=O)c2ccccc2C1=O
inactive: [1] 102 % of control

N/N=C\C(=N/N)C(O)C(O)C(O)CO (stereo unspecified)
inactive: [3] 87 % of control

Nc1nc2c(c(=O)[nH]1)CC(=O)N2
inactive: [4] 98 % of control | [5] 100 % of control | endpoint: median survival time, dose: 200.0 mg/kg/injection, schedule: Q01DX005 (ip), vehicle: saline 104 % of control

Cc1cc(C)c(N(CC(=O)O)S(=O)(=O)c2ccccc2)c(C)c1N(CC(=O)O)S(=O)(=O)c1ccccc1
inactive: [3] 97 % of control | endpoint: mean survival time, dose: 200.0 mg/kg/injection, schedule: Q01DX001 (ip), vehicle: saline with Tween-80 105 % of control | endpoint: mean survival time, dose: 400.0 mg/kg/injection, schedule: Q01DX001 (ip), vehicle: saline with Tween-80 103 % of control

CCCc1cc(C(C)=O)c[n+](C2OC(COC(C)=O)C(OC(C)=O)C(OC(C)=O)C2OC(C)=O)c1 (stereo unspecified)
inactive: endpoint: mean survival time, dose: 3.13 mg/kg/injection, schedule: Q01DX005 (ip), vehicle: water 107 % of control | endpoint: mean survival time, dose: 6.25 mg/kg/injection, schedule: Q01DX005 (ip), vehicle: water 100 % of control | endpoint: mean survival time, dose: 12.5 mg/kg/injection, schedule: Q01DX005 (ip), vehicle: water 104 % of control | endpoint: mean survival time, dose: 25.0 mg/kg/injection, schedule: Q01DX005 (ip), vehicle: water 109 % of control | endpoint: mean survival time, dose: 50.0 mg/kg/injection, schedule: Q01DX005 (ip), vehicle: water 95 % of control

COc1ccc(OCCCn2cc(-c3ccc(Cl)c(Cl)c3)c(N)nc2=O)cc1
inactive: [1] 97 % of control | [2] 92 % of control | [6] 94 % of control

CSc1nccc2c1ncn2C1OC(CO)C(O)C1O (stereo unspecified)
inactive: endpoint: mean survival time, dose: 100.0 mg/kg/injection, schedule: Q01DX001 (ip), vehicle: saline 98 % of control | endpoint: mean survival time, dose: 200.0 mg/kg/injection, schedule: Q01DX001 (ip), vehicle: saline 104 % of control | endpoint: mean survival time, dose: 400.0 mg/kg/injection, schedule: Q01DX001 (ip), vehicle: saline 104 % of control

CCCN(CCC)CCCC#N
inactive: [7] 100 % of control | [8] 101 % of control

[NH2-].[NH2-].[NH2-].[NH2-].[Pt+4]
inactive: endpoint: mean survival time, dose: 25.0 mg/kg/injection, schedule: Q01DX009 (ip), vehicle: saline with Tween-80 92 % of control | endpoint: mean survival time, dose: 100.0 mg/kg/injection, schedule: Q04DX003 (ip), vehicle: saline 98 % of control

Cc1ccc([Si](C)(C)c2ccccc2)cc1
inactive: endpoint: mean survival time, dose: 75.0 mg/kg/injection, schedule: Q01DX001 (ip), vehicle: saline 97 % of control | endpoint: mean survival time, dose: 150.0 mg/kg/injection, schedule: Q01DX001 (ip), vehicle: saline 101 % of control

O=c1[nH]c(=O)n(C2CC(O)C(CO)O2)cc1/C=C/c1ccccc1 (stereo unspecified)
inactive: endpoint: mean survival time, dose: 6.25 mg/kg/injection, schedule: Q01DX005 (ip), vehicle: distilled water + Tween-80 97 % of control | endpoint: mean survival time, dose: 12.5 mg/kg/injection, schedule: Q01DX005 (ip), vehicle: distilled water + Tween-80 103 % of control | endpoint: mean survival time, dose: 25.0 mg/kg/injection, schedule: Q01DX005 (ip), vehicle: distilled water + Tween-80 95 % of control | endpoint: mean survival time, dose: 50.0 mg/kg/injection, schedule: Q01DX005 (ip), vehicle: distilled water + Tween-80 95 % of control | endpoint: mean survival time, dose: 100.0 mg/kg/injection, schedule: Q01DX005 (ip), vehicle: distilled water + Tween-80 96 % of control

c1ccc(-c2nc3c(c(-c4ccccc4)n2)CCO3)cc1
inactive: [8] 95 % of control | [1] 98 % of control | [9] 93 % of control | [2] 100 % of control | endpoint: mean survival time, dose: 400.0 mg/kg/injection, schedule: Q01DX009 (ip), vehicle: saline with Tween-80 95 % of control | [6] 90 % of control

O=C(OCC1OC(n2cc(C(F)(F)F)c(=O)[nH]c2=O)CC1OC(=O)c1ccc([N+](=O)[O-])cc1)c1ccc([N+](=O)[O-])cc1 (stereo unspecified)
inactive: endpoint: median survival time, dose: 25.0 mg/kg/injection, schedule: Q01DX009 (ip), vehicle: Klucel (hydroxypropylcellulose) (HPC) 116 % of control | endpoint: median survival time, dose: 50.0 mg/kg/injection, schedule: Q01DX009 (ip), vehicle: Klucel (hydroxypropylcellulose) (HPC) 113 % of control

CCCCCCCCCC1=NC(C)(C)CN1CC(C)O (stereo unspecified)
inactive: endpoint: mean survival time, dose: 5.0 mg/kg/injection, schedule: Q01DX009 (ip), vehicle: saline with Tween-80 91 % of control | endpoint: mean survival time, dose: 10.0 mg/kg/injection, schedule: Q01DX009 (ip), vehicle: saline with Tween-80 102 % of control | endpoint: mean survival time, dose: 20.0 mg/kg/injection, schedule: Q01DX009 (ip), vehicle: saline with Tween-80 91 % of control

CCOC(=O)C1=C(Nc2ccc(OC)cc2)C(N)=NC1=N
inactive: endpoint: median survival time, dose: 6.25 mg/kg/injection, schedule: Q01DX005 (ip), vehicle: suspension in saline 98 % of control | endpoint: median survival time, dose: 12.5 mg/kg/injection, schedule: Q01DX005 (ip), vehicle: suspension in saline 101 % of control and 107 % of control | endpoint: median survival time, dose: 25.0 mg/kg/injection, schedule: Q01DX005 (ip), vehicle: suspension in saline 101 % of control and 107 % of control | endpoint: median survival time, dose: 36.0 mg/kg/injection, schedule: Q01DX005 (ip), vehicle: saline 105 % of control and 108 % of control | [4] 111 % of control | endpoint: median survival time, dose: 50.0 mg/kg/injection, schedule: Q01DX005 (ip), vehicle: suspension in saline 101 % of control and 107 % of control | endpoint: median survival time, dose: 60.0 mg/kg/injection, schedule: Q01DX005 (ip), vehicle: saline 102 % of control | [5] 106 % of control | endpoint: median survival time, dose: 100.0 mg/kg/injection, schedule: Q01DX005 (ip), vehicle: suspension in saline 117 % of control

CC(=O)N[C@H](CO)[C@H](O)c1ccc([N+](=O)[O-])cc1
inactive: endpoint: mean survival time, dose: 75.0 mg/kg/injection, schedule: Q01DX009 (ip), vehicle: saline with Tween-80 96 % of control | endpoint: mean survival time, dose: 150.0 mg/kg/injection, schedule: Q01DX009 (ip), vehicle: saline with Tween-80 96 % of control | endpoint: mean survival time, dose: 300.0 mg/kg/injection, schedule: Q01DX009 (ip), vehicle: saline with Tween-80 95 % of control

Clc1ncnc2c1ncn2C1CCCCO1 (stereo unspecified)
inactive: endpoint: mean survival time, dose: 176.0 mg/kg/injection, schedule: Q01DX009 (ip), vehicle: other 117 % of control

O=C(Nc1ccc(Br)cn1)Nc1cccc(Cl)c1Cl
inactive: [7] 94 % of control | [8] 101 % of control | [9] 105 % of control

Cc1ccc2snc(C(=O)O)c2c1[N+](=O)[O-]
inactive: [1] 98 % of control | [2] 104 % of control | [6] 103 % of control
